The source made the active and inactive calls. The rule behind the calls is not given here.
How the values were obtained:
MM1.S = experiment: Antiproliferative activity against human MM1.S cells assessed as inhibition of cell growth incubated for 72 hrs MTS assay; type: functional, cell-based
MV4-11 = experiment: Antiproliferative activity against human […] cells assessed as inhibition of cell growth incubated for 72 hrs MTS assay; type: functional, cell-based; conditions: MV4-11, 72 h
[1] = molecular target: T1, Protein cereblon/Bromodomain-containing protein 4 (Homo sapiens) (UniProt O60885+Q96SW2); experiment: Protac activity at CRBN/BRD4 in human MM1.S cells assessed as induction of BRD4 protein degradation by measuring residual activity at 0.1 uM incubated for 3 hrs by Western blot analysis relative to control; type: cell-based
[2] = molecular target: T1, Protein cereblon/Bromodomain-containing protein 4 (Homo sapiens); experiment: Protac activity at CRBN/BRD4 in human MM1.S cells assessed as induction of BRD4 protein degradation by measuring residual activity at 0.3 uM incubated for 3 hrs by Western blot analysis relative to control; type: cell-based
[3] = molecular target: T1, Protein cereblon/Bromodomain-containing protein 4 (Homo sapiens); experiment: Protac activity at CRBN/BRD4 in human MM1.S cells assessed as induction of BRD4 protein degradation by measuring residual activity at 1 uM incubated for 3 hrs by Western blot analysis relative to control; type: cell-based
[4] = molecular target: T1, Protein cereblon/Bromodomain-containing protein 4 (Homo sapiens); experiment: Protac activity at CRBN/BRD4 in human MV4-11 cells assessed as induction of BRD4 protein degradation by measuring residual activity at 0.02 uM incubated for 3 hrs by Western blot analysis relative to control; type: cell-based
[5] = molecular target: T1, Protein cereblon/Bromodomain-containing protein 4 (Homo sapiens); experiment: Protac activity at CRBN/BRD4 in human MV4-11 cells assessed as induction of BRD4 protein degradation by measuring residual activity at 0.06 uM incubated for 3 hrs by Western blot analysis relative to control; type: cell-based
[6] = molecular target: T1, Protein cereblon/Bromodomain-containing protein 4 (Homo sapiens); experiment: Protac activity at CRBN/BRD4 in human MV4-11 cells assessed as induction of BRD4 protein degradation by measuring residual activity at 0.18 uM incubated for 3 hrs by Western blot analysis relative to control; type: cell-based
[7] = molecular target: T1, Protein cereblon/Bromodomain-containing protein 4 (Homo sapiens); experiment: Protac activity at CRBN/BRD4 in human MM1.S cells assessed as induction of BRD4 protein degradation by measuring residual activity at 0.04 uM incubated for 3 hrs by Western blot analysis relative to control; type: cell-based
[8] = molecular target: T1, Protein cereblon/Bromodomain-containing protein 4 (Homo sapiens); experiment: Protac activity at CRBN/BRD4 in human MM1.S cells assessed as induction of BRD4 protein degradation by measuring residual activity at 0.12 uM incubated for 3 hrs by Western blot analysis relative to control; type: cell-based
[9] = molecular target: T1, Protein cereblon/Bromodomain-containing protein 4 (Homo sapiens); experiment: Protac activity at CRBN/BRD4 in human MM1.S cells assessed as induction of BRD4 protein degradation by measuring residual activity at 0.36 uM incubated for 3 hrs by Western blot analysis relative to control; type: cell-based
[10] = molecular target: T1, Protein cereblon/Bromodomain-containing protein 4 (Homo sapiens); experiment: Protac activity at CRBN/BRD4 in human MV4-11 cells assessed as induction of BRD4 protein degradation by measuring residual activity at 0.01 uM incubated for 3 hrs by Western blot analysis relative to control; type: cell-based
[11] = molecular target: T1, Protein cereblon/Bromodomain-containing protein 4 (Homo sapiens); experiment: Protac activity at CRBN/BRD4 in human MV4-11 cells assessed as induction of BRD4 protein degradation by measuring residual activity at 0.03 uM incubated for 3 hrs by Western blot analysis relative to control; type: cell-based
[12] = molecular target: T1, Protein cereblon/Bromodomain-containing protein 4 (Homo sapiens); experiment: Protac activity at CRBN/BRD4 in human MV4-11 cells assessed as induction of BRD4 protein degradation by measuring residual activity at 0.09 uM incubated for 3 hrs by Western blot analysis relative to control; type: cell-based
[13] = molecular target: T1, Protein cereblon/Bromodomain-containing protein 4 (Homo sapiens); experiment: Protac activity at CRBN/BRD4 in human MM1.S cells assessed as induction of BRD4 protein degradation by measuring residual activity at 0.06 uM incubated for 3 hrs by Western blot analysis relative to control; type: cell-based
[14] = molecular target: T1, Protein cereblon/Bromodomain-containing protein 4 (Homo sapiens); experiment: Protac activity at CRBN/BRD4 in human MM1.S cells assessed as induction of BRD4 protein degradation by measuring residual activity at 0.18 uM incubated for 3 hrs by Western blot analysis relative to control; type: cell-based
[15] = molecular target: T1, Protein cereblon/Bromodomain-containing protein 4 (Homo sapiens); experiment: Protac activity at CRBN/BRD4 in human MM1.S cells assessed as induction of BRD4 protein degradation by measuring residual activity at 0.02 uM incubated for 3 hrs by Western blot analysis relative to control; type: cell-based
[16] = molecular target: T1, Protein cereblon/Bromodomain-containing protein 4 (Homo sapiens); experiment: Protac activity at CRBN/BRD4 in human MV4-11 cells assessed as induction of BRD4 protein degradation by measuring residual activity at 0.005 uM incubated for 3 hrs by Western blot analysis relative to control; type: cell-based
[17] = molecular target: T1, Protein cereblon/Bromodomain-containing protein 4 (Homo sapiens); experiment: Protac activity at CRBN/BRD4 in human MV4-11 cells assessed as induction of BRD4 protein degradation by measuring residual activity at 0.015 uM incubated for 3 hrs by Western blot analysis relative to control; type: cell-based
[18] = molecular target: T1, Protein cereblon/Bromodomain-containing protein 4 (Homo sapiens); experiment: Protac activity at CRBN/BRD4 in human MV4-11 cells assessed as induction of BRD4 protein degradation by measuring residual activity at 0.045 uM incubated for 3 hrs by Western blot analysis relative to control; type: cell-based
[19] = molecular target: T1, Protein cereblon/Bromodomain-containing protein 4 (Homo sapiens); experiment: Protac activity at CRBN/BRD4 in human MM1.S cells assessed as downregulation of MYC protein expression at […] incubated for 3 hrs by Western blot analysis; type: cell-based
[20] = molecular target: T1, Protein cereblon/Bromodomain-containing protein 4 (Homo sapiens); experiment: Protac activity at CRBN/BRD4 in human MM1.S cells assessed as induction of BRD4 protein degradation by measuring residual activity at 0.03 uM incubated for 3 hrs by Western blot analysis relative to control; type: cell-based
[21] = molecular target: T1, Protein cereblon/Bromodomain-containing protein 4 (Homo sapiens); experiment: Protac activity at CRBN/BRD4 in human MV4-11 cells assessed as induction of BRD4 protein degradation by measuring residual activity at 0.003 uM incubated for 3 hrs by Western blot analysis relative to control; type: cell-based
[22] = molecular target: T1, Protein cereblon/Bromodomain-containing protein 4 (Homo sapiens); experiment: Protac activity at CRBN/BRD4 in human MV4-11 cells assessed as induction of BRD4 protein degradation by measuring residual activity at 0.009 uM incubated for 3 hrs by Western blot analysis relative to control; type: cell-based
[23] = molecular target: T1, Protein cereblon/Bromodomain-containing protein 4 (Homo sapiens); experiment: Protac activity at CRBN/BRD4 in human MV4-11 cells assessed as induction of BRD4 protein degradation by measuring residual activity at 0.027 uM incubated for 3 hrs by Western blot analysis relative to control; type: cell-based
[24] = molecular target: T1, Protein cereblon/Bromodomain-containing protein 4 (Homo sapiens); experiment: Protac activity at CRBN/BRD4 in human MM1.S cells assessed as induction of BRD4 protein degradation by measuring residual activity at 0.54 uM incubated for 3 hrs by Western blot analysis relative to control; type: cell-based
[25] = molecular target: T1, Protein cereblon/Bromodomain-containing protein 4 (Homo sapiens); experiment: Protac activity at CRBN/BRD4 in human MV4-11 cells assessed as induction of BRD4 protein degradation by measuring residual activity at 0.006 uM incubated for 3 hrs by Western blot analysis relative to control; type: cell-based
[26] = molecular target: T1, Protein cereblon/Bromodomain-containing protein 4 (Homo sapiens); experiment: Protac activity at CRBN/BRD4 in human MV4-11 cells assessed as induction of BRD4 protein degradation by measuring residual activity at 0.018 uM incubated for 3 hrs by Western blot analysis relative to control; type: cell-based
[27] = molecular target: T1, Protein cereblon/Bromodomain-containing protein 4 (Homo sapiens); experiment: Protac activity at CRBN/BRD4 in human MV4-11 cells assessed as induction of BRD4 protein degradation by measuring residual activity at 0.054 uM incubated for 3 hrs by Western blot analysis relative to control; type: cell-based
[28] = molecular target: T1, Protein cereblon/Bromodomain-containing protein 4 (Homo sapiens); experiment: Protac activity at CRBN/BRD4 in human MV4-11 cells assessed as induction of BRD4 protein degradation by measuring residual activity at 30 nM measured after 6 hrs by Western blot analysis (reference value: 100%); type: cell-based
[29] = molecular target: T1, Protein cereblon/Bromodomain-containing protein 4 (Homo sapiens); experiment: Protac activity at CRBN/BRD4 in human MM1.S cells assessed as induction of BRD4 protein degradation by measuring residual activity at 100 nM measured after 6 hrs by Western blot analysis (reference value: 100%); type: cell-based
[30] = molecular target: T1, Protein cereblon/Bromodomain-containing protein 4 (Homo sapiens); experiment: Protac activity at CRBN/BRD4 in human MM1.S cells assessed as induction of BRD4 protein degradation by measuring residual activity at 300 nM measured after 6 hrs by Western blot analysis (reference value: 100%); type: cell-based
[31] = molecular target: T1, Protein cereblon/Bromodomain-containing protein 4 (Homo sapiens); experiment: Protac activity at CRBN/BRD4 in human MM1.S cells assessed as induction of BRD4 protein degradation by measuring residual activity at 1000 nM measured after 6 hrs by Western blot analysis (reference value: 100%); type: cell-based
[32] = molecular target: T1, Protein cereblon/Bromodomain-containing protein 4 (Homo sapiens); experiment: Protac activity at CRBN/BRD4 in human MV4-11 cells assessed as induction of BRD4 protein degradation by measuring residual activity at 10 nM measured after 6 hrs by Western blot analysis (reference value: 100%); type: cell-based
[33] = molecular target: T1, Protein cereblon/Bromodomain-containing protein 4 (Homo sapiens); experiment: Protac activity at CRBN/BRD4 in human MV4-11 cells assessed as induction of BRD4 protein degradation by measuring residual activity at 100 nM measured after 6 hrs by Western blot analysis (reference value: 100%); type: cell-based

T1 sequence (Q96SW2 whole entry, looked up, other chains not shown): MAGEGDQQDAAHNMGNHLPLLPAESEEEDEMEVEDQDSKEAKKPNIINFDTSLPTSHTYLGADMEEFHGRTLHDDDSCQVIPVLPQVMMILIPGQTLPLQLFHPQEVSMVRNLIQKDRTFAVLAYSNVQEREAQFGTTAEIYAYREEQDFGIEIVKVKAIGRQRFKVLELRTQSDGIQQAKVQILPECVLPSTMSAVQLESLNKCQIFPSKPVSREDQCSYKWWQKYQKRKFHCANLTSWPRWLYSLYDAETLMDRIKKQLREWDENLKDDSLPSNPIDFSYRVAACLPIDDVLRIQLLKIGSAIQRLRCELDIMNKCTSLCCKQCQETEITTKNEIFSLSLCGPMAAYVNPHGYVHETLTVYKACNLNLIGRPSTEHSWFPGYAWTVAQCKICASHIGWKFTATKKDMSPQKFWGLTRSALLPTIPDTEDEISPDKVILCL

Row | IC50 (MM1.S) | IC50 (MV4-11) | Activity [1] | Activity [2] | Activity [10] | Activity [11] | Activity [12] | Activity [13] | Activity [14] | Activity [19] | Activity [20] | SMILES | also measured
1 | 544 nM | 48 nM | 117% | 136% |  |  |  |  |  |  |  | Cc1sc2c(c1C)C(c1ccc(Cl)cc1)=N[C@@H](CC(=O)NCCNC(=O)c1ccc(COc3cccc4c3C(=O)N(C3CCC(=O)NC3=O)C4=O)cc1)c1nnc(C)n1-2 (stereo partly specified) | Activity [3]: 123%; Activity [4]: 126%; Activity [5]: 102%; Activity [6]: 82%
2 | 131 nM | 26 nM |  |  | 103% | 104% | 112% |  |  |  |  | Cc1sc2c(c1C)C(c1ccc(Cl)cc1)=N[C@@H](CC(=O)NCCCCC(=O)NCc1ccc(CNc3cccc4c3C(=O)N(C3CCC(=O)NC3=O)C4=O)cc1)c1nnc(C)n1-2 (stereo partly specified) | Activity [7]: 121%; Activity [8]: 125%; Activity [9]: 116%
3 | 139 nM | 10 nM |  |  |  |  |  | 98% | 59% |  |  | Cc1sc2c(c1C)C(c1ccc(Cl)cc1)=N[C@@H](CC(=O)NCCCCNC(=O)c1ccc(COc3cccc4c3CN(C3CCC(=O)NC3=O)C4=O)cc1)c1nnc(C)n1-2 (stereo partly specified) | Activity [15]: 93%; Activity [16]: 126%; Activity [17]: 102%; Activity [18]: 95%
4 | 110 nM | 8 nM | 86% | 75% |  |  |  |  |  | inactive | 87% | Cc1sc2c(c1C)C(c1ccc(Cl)cc1)=N[C@@H](CC(=O)NCCCCCNC(=O)c1ccc(COc3cccc4c3C(=O)N(C3CCC(=O)NC3=O)C4=O)cc1)c1nnc(C)n1-2 (stereo partly specified) | Activity [21]: 95%; Activity [22]: 96%; Activity [23]: 56%
5 | 163 nM | 18 nM |  |  |  |  |  | 90% | 111% |  |  | Cc1sc2c(c1C)C(c1ccc(Cl)cc1)=N[C@@H](CC(=O)NCCCCC(=O)NCCOc1cccc3c1C(=O)N(C1CCC(=O)NC1=O)C3=O)c1nnc(C)n1-2 (stereo partly specified) | Activity [24]: 111%; Activity [25]: 105%; Activity [26]: 105%; Activity [27]: 117%
6 | 141 nM | 13 nM | 87% | 54% | 137% | 132% | 48% |  |  | Active | 109% | Cc1sc2c(c1C)C(c1ccc(Cl)cc1)=N[C@@H](CC(=O)NCCCCNC(=O)COc1cccc3c1C(=O)N(C1CCC(=O)NC1=O)C3=O)c1nnc(C)n1-2 (stereo partly specified) | Activity [28]: 14%; Activity [29]: 26%; Activity [30]: 43%; Activity [31]: 40%; Activity [32]: 21%; Activity [33]: 0%

Reference: ChEMBL document CHEMBL5236646, “Design, synthesis, and biological evaluation of BRD4 degraders” (Bioorg Med Chem, 2023)
